Tests used:
D(1B) dopamine receptor = D(1B) dopamine receptor (Homo sapiens, UniProt P21918)
[1] = biological target: 5-hydroxytryptamine receptor 5A (Homo sapiens, UniProt P47898)
[2] = biological target: Rod cGMP-specific 3',5'-cyclic phosphodiesterase subunit alpha (Homo sapiens, UniProt P16499); format: functional
[3] = biological target: T1, Type-1 angiotensin II receptor (Homo sapiens, UniProt P30556)
T1 sequence (P30556 whole entry): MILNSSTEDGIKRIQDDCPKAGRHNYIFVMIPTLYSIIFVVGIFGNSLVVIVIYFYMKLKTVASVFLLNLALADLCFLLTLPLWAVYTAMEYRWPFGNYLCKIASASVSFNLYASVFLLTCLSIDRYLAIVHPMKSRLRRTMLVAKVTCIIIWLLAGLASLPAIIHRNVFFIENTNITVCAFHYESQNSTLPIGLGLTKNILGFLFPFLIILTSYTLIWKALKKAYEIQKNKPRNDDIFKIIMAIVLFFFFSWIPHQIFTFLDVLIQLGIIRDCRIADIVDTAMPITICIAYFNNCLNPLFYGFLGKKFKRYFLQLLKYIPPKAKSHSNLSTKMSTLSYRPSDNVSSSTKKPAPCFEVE

[4] = biological target: T2, Type-2 angiotensin II receptor (Homo sapiens, UniProt P50052); format: functional
T2 sequence (P50052 whole entry): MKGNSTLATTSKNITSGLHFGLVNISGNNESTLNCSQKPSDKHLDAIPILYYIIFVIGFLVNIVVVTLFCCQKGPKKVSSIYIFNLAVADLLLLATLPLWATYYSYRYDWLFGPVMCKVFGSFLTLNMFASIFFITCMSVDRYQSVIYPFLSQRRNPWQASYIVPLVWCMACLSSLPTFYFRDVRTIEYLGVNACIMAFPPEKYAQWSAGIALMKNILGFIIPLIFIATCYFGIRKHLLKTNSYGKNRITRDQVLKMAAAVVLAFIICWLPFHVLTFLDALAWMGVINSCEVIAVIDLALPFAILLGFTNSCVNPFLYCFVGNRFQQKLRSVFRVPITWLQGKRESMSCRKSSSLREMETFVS

[5] = biological target: T3, Muscarinic acetylcholine receptor M1 (Homo sapiens, UniProt P11229)
T3 sequence (P11229 whole entry): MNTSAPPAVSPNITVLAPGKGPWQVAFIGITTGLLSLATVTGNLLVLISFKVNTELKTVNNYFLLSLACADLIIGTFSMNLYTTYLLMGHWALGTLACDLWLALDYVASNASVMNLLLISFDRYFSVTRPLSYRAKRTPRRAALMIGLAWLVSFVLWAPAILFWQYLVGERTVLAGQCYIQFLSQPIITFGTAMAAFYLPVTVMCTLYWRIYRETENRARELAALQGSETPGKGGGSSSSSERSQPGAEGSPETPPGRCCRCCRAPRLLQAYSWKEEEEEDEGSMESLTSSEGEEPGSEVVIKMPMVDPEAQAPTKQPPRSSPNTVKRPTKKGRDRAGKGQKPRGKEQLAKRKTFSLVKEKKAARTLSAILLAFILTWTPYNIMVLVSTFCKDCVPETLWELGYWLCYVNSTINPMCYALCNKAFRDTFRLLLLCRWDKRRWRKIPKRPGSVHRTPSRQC

[6] = biological target: T2, Type-2 angiotensin II receptor; format: functional; remark: listed apart in the source
Histamine H1 receptor [7] = biological target: T4, Histamine H1 receptor (Homo sapiens, UniProt P35367); format: functional, cell-based
T4 sequence (P35367 whole entry): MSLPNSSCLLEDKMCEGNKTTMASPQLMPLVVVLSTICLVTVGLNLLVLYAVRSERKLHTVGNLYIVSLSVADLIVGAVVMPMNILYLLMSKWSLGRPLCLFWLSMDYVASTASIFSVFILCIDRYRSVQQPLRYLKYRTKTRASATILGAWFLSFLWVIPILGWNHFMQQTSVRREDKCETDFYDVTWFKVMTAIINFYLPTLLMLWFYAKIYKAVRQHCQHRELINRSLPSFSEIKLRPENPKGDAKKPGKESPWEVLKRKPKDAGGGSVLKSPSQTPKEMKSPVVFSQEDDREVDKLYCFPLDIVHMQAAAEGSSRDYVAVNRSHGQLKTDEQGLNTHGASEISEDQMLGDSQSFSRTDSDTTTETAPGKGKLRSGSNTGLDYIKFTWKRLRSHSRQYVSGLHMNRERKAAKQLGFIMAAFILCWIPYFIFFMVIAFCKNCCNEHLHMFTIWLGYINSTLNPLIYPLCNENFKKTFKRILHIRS

Histamine H1 receptor [8] = biological target: T4, Histamine H1 receptor; format: functional, cell-based; remark: listed apart in the source
[9] = biological target: T5, 5-hydroxytryptamine receptor 1A (Homo sapiens, UniProt P08908)
T5 sequence (P08908 whole entry): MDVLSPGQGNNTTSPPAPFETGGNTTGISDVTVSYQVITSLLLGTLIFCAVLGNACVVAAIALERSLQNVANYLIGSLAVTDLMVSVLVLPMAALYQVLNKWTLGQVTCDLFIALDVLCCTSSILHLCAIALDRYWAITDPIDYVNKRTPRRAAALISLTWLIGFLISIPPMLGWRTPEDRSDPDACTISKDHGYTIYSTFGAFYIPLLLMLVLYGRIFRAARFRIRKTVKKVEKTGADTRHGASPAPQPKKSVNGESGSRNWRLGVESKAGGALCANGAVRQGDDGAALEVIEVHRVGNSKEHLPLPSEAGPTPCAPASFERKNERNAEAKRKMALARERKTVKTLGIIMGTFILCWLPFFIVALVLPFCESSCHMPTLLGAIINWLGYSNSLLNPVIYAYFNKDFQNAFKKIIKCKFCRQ

[10] = biological target: Beta-1 adrenergic receptor (Homo sapiens, UniProt P08588); format: functional, cell-based
Beta-1 adrenergic receptor, sequence (P08588 whole entry): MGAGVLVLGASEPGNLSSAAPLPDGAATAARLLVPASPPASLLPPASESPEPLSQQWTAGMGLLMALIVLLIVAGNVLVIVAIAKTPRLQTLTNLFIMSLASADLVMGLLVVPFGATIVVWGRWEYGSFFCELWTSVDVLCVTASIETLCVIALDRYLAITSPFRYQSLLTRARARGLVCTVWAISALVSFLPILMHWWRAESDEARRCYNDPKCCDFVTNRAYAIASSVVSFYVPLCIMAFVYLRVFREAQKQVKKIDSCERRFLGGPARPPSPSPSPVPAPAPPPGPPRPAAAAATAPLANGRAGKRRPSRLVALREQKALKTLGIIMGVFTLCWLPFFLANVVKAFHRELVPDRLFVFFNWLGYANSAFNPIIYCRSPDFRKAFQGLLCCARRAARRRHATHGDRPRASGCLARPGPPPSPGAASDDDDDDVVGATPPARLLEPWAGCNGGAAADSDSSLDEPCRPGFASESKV

[11] = biological target: Oxysterols receptor LXR-beta (Homo sapiens, UniProt P55055); format: functional
Oxysterols receptor LXR-beta, sequence (P55055 whole entry): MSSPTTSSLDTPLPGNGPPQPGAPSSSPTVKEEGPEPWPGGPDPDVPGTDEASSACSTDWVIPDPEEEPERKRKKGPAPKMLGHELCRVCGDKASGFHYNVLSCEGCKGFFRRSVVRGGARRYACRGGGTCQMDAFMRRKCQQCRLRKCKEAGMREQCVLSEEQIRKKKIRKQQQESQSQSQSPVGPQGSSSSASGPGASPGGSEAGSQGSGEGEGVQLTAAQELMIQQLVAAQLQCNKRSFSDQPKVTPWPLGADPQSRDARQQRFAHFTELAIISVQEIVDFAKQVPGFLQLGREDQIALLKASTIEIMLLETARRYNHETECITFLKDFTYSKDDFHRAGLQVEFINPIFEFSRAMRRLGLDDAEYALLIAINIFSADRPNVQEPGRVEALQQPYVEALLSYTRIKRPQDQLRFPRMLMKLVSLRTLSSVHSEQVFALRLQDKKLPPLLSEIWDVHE

[12] = biological target: T6, Oxysterols receptor LXR-alpha (Homo sapiens, UniProt Q13133); format: functional
T6 sequence (Q13133 whole entry): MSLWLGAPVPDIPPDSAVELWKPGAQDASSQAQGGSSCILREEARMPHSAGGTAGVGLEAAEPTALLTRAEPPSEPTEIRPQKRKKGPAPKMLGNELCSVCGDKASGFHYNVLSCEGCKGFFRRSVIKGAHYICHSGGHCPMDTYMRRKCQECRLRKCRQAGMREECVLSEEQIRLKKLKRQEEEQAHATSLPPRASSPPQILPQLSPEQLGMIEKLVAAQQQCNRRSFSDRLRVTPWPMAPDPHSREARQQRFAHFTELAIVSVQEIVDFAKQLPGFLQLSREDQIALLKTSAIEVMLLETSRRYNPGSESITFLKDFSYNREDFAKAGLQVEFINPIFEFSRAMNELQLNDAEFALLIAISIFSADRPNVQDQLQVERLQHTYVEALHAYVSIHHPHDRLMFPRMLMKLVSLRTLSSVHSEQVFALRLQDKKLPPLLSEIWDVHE

[13] = biological target: T6, Oxysterols receptor LXR-alpha; format: functional; remark: listed apart in the source
[14] = biological target: T7, Peroxisome proliferator-activated receptor alpha (Homo sapiens, UniProt Q07869); format: functional
T7 sequence (Q07869 whole entry): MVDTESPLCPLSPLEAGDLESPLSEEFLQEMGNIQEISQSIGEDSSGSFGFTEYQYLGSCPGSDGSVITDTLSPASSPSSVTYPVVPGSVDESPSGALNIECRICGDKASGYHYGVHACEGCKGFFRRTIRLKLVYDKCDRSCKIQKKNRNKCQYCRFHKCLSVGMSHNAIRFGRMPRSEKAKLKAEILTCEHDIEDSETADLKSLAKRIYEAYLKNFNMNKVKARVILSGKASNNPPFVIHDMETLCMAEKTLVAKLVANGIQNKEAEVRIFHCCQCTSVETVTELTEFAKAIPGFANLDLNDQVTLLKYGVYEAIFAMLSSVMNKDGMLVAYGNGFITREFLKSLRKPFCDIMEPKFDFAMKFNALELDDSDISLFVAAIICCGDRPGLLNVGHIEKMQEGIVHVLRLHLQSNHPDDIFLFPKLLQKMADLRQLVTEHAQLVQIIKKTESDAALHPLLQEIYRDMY

[15] = biological target: Retinoic acid receptor alpha (Homo sapiens, UniProt P10276); format: functional, cell-based
Retinoic acid receptor alpha, sequence (P10276 whole entry): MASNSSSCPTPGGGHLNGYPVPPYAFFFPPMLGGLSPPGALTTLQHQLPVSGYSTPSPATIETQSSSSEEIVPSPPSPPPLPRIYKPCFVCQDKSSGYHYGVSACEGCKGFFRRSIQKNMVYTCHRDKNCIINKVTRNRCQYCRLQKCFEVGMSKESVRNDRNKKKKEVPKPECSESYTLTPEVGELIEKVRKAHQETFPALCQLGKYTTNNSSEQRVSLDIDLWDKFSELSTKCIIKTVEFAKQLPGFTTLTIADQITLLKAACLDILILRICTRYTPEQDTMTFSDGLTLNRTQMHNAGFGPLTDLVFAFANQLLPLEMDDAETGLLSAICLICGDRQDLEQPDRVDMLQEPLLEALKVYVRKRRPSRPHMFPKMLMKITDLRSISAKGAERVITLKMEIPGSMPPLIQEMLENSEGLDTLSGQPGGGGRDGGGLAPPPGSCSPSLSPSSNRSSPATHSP

[16] = biological target: T1, Type-1 angiotensin II receptor; remark: listed apart in the source
[17] = biological target: T3, Muscarinic acetylcholine receptor M1; format: functional, cell-based
Further: assay procedure not described here.

D(1B) dopamine receptor, sequence (P21918 whole entry): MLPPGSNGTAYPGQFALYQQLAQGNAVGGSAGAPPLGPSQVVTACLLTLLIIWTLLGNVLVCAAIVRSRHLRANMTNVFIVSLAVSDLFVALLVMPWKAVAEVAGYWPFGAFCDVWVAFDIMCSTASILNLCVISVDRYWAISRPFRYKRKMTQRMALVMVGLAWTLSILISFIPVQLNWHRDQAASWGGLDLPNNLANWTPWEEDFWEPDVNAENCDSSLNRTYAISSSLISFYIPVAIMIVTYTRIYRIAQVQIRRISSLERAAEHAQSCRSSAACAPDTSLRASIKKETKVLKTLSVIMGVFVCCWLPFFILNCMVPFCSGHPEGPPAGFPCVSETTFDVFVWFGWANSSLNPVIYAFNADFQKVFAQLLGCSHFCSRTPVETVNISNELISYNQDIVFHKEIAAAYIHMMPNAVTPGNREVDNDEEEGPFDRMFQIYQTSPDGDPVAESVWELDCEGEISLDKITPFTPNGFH
Rod cGMP-specific 3',5'-cyclic phosphodiesterase subunit alpha, sequence (P16499 whole entry): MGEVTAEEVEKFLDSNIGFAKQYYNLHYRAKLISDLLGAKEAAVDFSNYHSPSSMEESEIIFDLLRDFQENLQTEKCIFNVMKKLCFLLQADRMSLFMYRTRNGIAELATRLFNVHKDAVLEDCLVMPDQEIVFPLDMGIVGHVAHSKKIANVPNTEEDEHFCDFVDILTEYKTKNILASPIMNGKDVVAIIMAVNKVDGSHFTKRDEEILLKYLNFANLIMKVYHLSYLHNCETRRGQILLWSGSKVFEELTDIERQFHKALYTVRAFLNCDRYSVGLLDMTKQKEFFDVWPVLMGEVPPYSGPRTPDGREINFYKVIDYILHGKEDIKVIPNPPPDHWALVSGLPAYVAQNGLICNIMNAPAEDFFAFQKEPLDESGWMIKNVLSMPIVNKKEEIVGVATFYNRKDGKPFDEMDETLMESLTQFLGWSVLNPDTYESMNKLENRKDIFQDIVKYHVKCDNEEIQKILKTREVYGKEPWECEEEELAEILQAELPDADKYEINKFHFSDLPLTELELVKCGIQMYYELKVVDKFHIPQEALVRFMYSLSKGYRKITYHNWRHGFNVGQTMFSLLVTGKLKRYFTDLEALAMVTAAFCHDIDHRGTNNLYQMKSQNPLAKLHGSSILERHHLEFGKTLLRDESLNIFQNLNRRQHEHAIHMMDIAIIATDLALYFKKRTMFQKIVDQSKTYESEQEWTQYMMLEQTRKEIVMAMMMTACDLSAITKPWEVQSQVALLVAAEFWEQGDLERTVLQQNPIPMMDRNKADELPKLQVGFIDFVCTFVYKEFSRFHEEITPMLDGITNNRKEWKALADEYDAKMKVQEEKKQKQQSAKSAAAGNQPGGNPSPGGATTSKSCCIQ
5-hydroxytryptamine receptor 5A, sequence (P47898 whole entry): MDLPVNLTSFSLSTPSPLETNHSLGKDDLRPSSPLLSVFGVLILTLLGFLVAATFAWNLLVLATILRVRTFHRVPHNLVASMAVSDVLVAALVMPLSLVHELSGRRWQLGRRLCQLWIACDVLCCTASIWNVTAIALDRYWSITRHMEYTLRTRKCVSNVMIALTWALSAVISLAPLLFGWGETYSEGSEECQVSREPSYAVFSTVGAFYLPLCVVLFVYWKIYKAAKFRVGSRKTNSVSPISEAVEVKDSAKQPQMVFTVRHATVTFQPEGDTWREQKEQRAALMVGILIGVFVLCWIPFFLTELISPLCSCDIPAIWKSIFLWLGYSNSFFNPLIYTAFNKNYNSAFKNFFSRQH

With `CCOc1nc2cccc(C(=O)O)c2n1Cc1ccc(-c2ccccc2-c2nnn[nH]2)cc1` the AC50 (D(1B) dopamine receptor) was over 10 µM, the AC50 [1] was over 10 µM and the AC50 [2] was over 10 µM. The AC50 [3] was 0.0004 µM and the AC50 [4] was 84.8 µM.

With `CC(C)NC(=N)NC(=N)Nc1ccc(Cl)c(Cl)c1` [CHLORPROGUANIL] the AC50 [5] was over 30 µM.

With `O=C(O)Cc1ccccc1Nc1c(Cl)cccc1Cl` [DICLOFENAC] the AC50 (D(1B) dopamine receptor) was over 10 µM, the AC50 [1] was over 10 µM and the AC50 [2] was over 10 µM. The AC50 [6] was 85 µM.

Work on `CN[C@@H]1[C@H](O[C@H]2[C@H](O[C@H]3[C@H](O)[C@@H](O)[C@H](NC(=N)N)[C@@H](O)[C@@H]3NC(=N)N)O[C@@H](C)[C@]2(O)CO)O[C@@H](CO)[C@H](O)[C@H]1O` [DIHYDROSTREPTOMYCIN] yielded an AC50 [5] of over 30 µM.

`O=C(O)Cc1ccccc1Oc1ccc(Cl)cc1Cl` [FENCLOFENAC] was tested, and the AC50 (Histamine H1 receptor [7]) was over 30 µM and the AC50 (Histamine H1 receptor [8]) was over 30 µM.

`C#C[C@]1(O)C=C[C@H]2[C@@H]3CCC4=CC(=O)CC[C@@H]4[C@H]3CC[C@@]21CC` [GESTODENE] was tested, and the AC50 [5] was over 30 µM.

Work on `CC[C@@H](CO)NC(=O)[C@@H]1C=C2c3cccc4c3c(cn4C)C[C@H]2N(C)C1` [METHYSERGIDE] yielded an AC50 [9] of 0.17 µM.

Molecule `CN1Cc2c(N)cccc2C(c2ccccc2)C1` (stereo not given) [NOMIFENSINE] has an AC50 (Histamine H1 receptor [7]) of over 30 µM and an AC50 (Histamine H1 receptor [8]) of over 30 µM.

With `CC(C)C[C@H](NC(=O)[C@@H](O)[C@H](N)Cc1ccccc1)C(=O)O` [UBENIMEX] the AC50 [10] was over 30 µM.

For `COc1cc(C(=O)NS(=O)(=O)c2ccccc2C)ccc1Cc1cn(C)c2ccc(NC(=O)OC3CCCC3)cc12` [ZAFIRLUKAST], the AC50 [11] was over 30 µM, the AC50 [12] was over 30 µM and the AC50 [13] was over 30 µM. For the same molecule, the AC50 [14] was over 30 µM, the AC50 [15] was over 30 µM and the AC50 [16] was 50 µM.

For `O=C1Cc2cc(CCN3CCN(c4nsc5ccccc45)CC3)c(Cl)cc2N1` [ZIPRASIDONE], the AC50 [17] was 20 µM.

Reference: ChEMBL document CHEMBL5291721, “A preclinical secondary pharmacology resource illuminates target-adverse drug reaction associations of marketed drugs” (Nat Commun, 2023)
